Results published in patent US20100256173A1, “Method of Treating Cognitive Impairment” (priority 2009, published 2010).

Legend:
[1] = test system: Senescence Accelerated Mouse P8 (SAMP8); settings: cited from earlier work
[2] = test system: nicotine-stimulated release of acetylcholine (ACh); assay: nicotine-stimulated release of acetylcholine
Description: (§1) Experiments have shown that ST101 potentiates nicotine-stimulated release of acetylcholine (ACh), increases extracellular ACh concentrations in the cerebral cortex, and increases extracellular concentrations of both ACh and dopamine in the hippocampus.

[3] = test system: rodent models of learning and memory; settings: cited from earlier work
[4] = test system: extracellular ACh and dopamine in cerebral cortex and hippocampus; assay: extracellular neurotransmitter concentrations in brain; type: in vivo
Description: as §1

[5] = known from other studies; cited from earlier work
[6] = test system: rodent models of learning and memory; assay: rodent models of learning and memory (age-impaired memory, chemical amnesic agents); type: in vivo; settings: after both acute (single-dose) and chronic administration
Description: The chemical name for ST101 is spiro(imidazo(1,2-a)pyridin-2(3H)-one-3,2′-indan).
(Yamaguchi Y., et al., J. Pharmacol. Exp. Ther. 317:1079-87 (2006); Ito Y., et al., J. Pharmacol. Exp. Ther. 320: 819-27 (2007)).

## O=C1N=C2C=CC=CN2C12Cc1ccccc1C2 [ST101, spiro(imidazo(1,2-a)pyridin-2(3H)-one-3,2′-indan)]
[1]; SAMP8 mouse brain tissue
  accumulation of Aβ-like deposits: decreased
[1]; SAMP8 mouse
  learning and memory functions: improvement
[2]
  nicotine-stimulated release of acetylcholine (ACh): potentiates
[3]; chemical amnesic agent methamphetamine
  memory deficits induced by methamphetamine: attenuates
[3]; glutamate receptor antagonist MK-801
  memory deficits induced by MK-801: attenuates
[3]; in vivo
  age-impaired memory: significantly improves
[3]; muscarinic antagonist scopolamine
  memory deficits induced by scopolamine: attenuates
[4]; cerebral cortex
  extracellular ACh concentrations: increases
[4]; hippocampus
  extracellular concentration of ACh: increases
  extracellular concentration of dopamine: increases
[5]
  neuroprotective activity: has neuroprotective activity
[6]
  pharmacological activity in rodent models of learning and memory relevant to AD: has shown pharmacological activity
